Source: US20110190336A1, “AZABENZIMIDAZOLONES” (CARA THERAPEUTICS, INC., priority 2008, published 2011)

Target: T1, human DP2 receptor (Homo sapiens, UniProt Q9Y5Y4)
T1 construct: expressed in transfected cells; host or cells: CHO-K1 FLP-In (Invitrogen, catalog no. R758-07), stably transfected
T1 sequence (Q9Y5Y4 1-395): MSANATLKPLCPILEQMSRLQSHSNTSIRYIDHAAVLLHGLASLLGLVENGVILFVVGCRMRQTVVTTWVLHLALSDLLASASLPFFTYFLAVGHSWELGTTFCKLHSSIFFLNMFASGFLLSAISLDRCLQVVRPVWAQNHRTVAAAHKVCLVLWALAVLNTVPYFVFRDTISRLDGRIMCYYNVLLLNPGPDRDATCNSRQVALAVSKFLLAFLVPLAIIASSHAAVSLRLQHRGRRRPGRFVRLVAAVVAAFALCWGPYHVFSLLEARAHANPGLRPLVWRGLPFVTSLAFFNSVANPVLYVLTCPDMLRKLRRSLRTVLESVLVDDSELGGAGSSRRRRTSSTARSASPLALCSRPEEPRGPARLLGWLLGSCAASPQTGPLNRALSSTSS
Assay: Prostaglandin D2 binding inhibition assay (scintillation proximity assay, 3H PGD2, membranes of transfected CHO cells)
Conditions: SPA, 5.5 nM 3H PGD2, CHO-K1 FLP-In human DP2 membranes; upper limit determinable 30 μM; read-out: IC50 ranges for inhibition of PGD2 binding to human DP2
How it was run: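 Membranes (5 μg) from CHO-K1 cells stably expressing human DP2 were mixed with WGA SPA beads and 5.5 nM 3H PGD2 in Tris buffer with 10 mM MgCl2, 100 mM NaCl, 0.1% BSA, plus compound. After 60 min at room temperature, CPM were read; IC50 from two-parameter nonlinear regression.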

| IC50 [µM] | Structure (SMILES) |
| --- | --- |
| < 1 | O=C(O)Cn1c(=O)n([C@@H]2CCN(S(=O)(=O)c3ccc(F)cc3Cl)C2)c2ncccc21 [Compound 101, (R)-2-(3-(1-(2-chloro-4-fluorophenylsulfonyl)pyrrolidin-3-yl)-2-oxo-2,3-dihydro-1H-imidazo[4,5-b]pyridin-1-yl)acetic acid] |
| < 1 | O=C(O)Cn1c(=O)n([C@@H]2CCN(S(=O)(=O)c3ccc(Cl)cc3Cl)C2)c2ncccc21 [Compound 102, (R)-2-(3-(1-(2,4-dichlorophenylsulfonyl)pyrrolidin-3-yl)-2-oxo-2,3-dihydro-1H-imidazo[4,5-b]pyridin-1-yl)acetic acid] |
| 1 to 10 | CS(=O)(=O)c1ccccc1S(=O)(=O)NC1CCC(n2c(=O)n(CC(=O)O)c3cccnc32)CC1 (stereo not shown) [Compound 104, 2-(3-(4-(2-(methylsulfonyl)phenylsulfonamido)cyclohexyl)-2-oxo-2,3-dihydro-1H-imidazo[4,5-b]pyridin-1-yl)acetic acid] |
| 1 to 10 | O=C(O)Cn1c(=O)n(C2CCC(NS(=O)(=O)c3ccc(F)cc3Cl)CC2)c2ncccc21 (stereo not shown) [Compound 105, 2-(3-(4-(2-chloro-4-fluorophenylsulfonamido)cyclohexyl)-2-oxo-2,3-dihydro-1H-imidazo[4,5-b]pyridin-1-yl)acetic acid] |
| 1 to 10 | O=C(O)Cn1c(=O)n(C2CCC(NS(=O)(=O)c3ccc(Cl)cc3Cl)CC2)c2ncccc21 (stereo not shown) [Compound 106, 2-(3-(4-(2,4-dichlorophenylsulfonamido)cyclohexyl)-2-oxo-2,3-dihydro-1H-imidazo[4,5-b]pyridin-1-yl)acetic acid] |
| 1 to 10 | Cc1ccc(S(=O)(=O)NC2CCC(n3c(=O)n(CC(=O)O)c4cccnc43)CC2)c(F)c1 (stereo not shown) [Compound 107, 2-(3-(4-(2-fluoro-4-methylphenylsulfonamido)cyclohexyl)-2-oxo-2,3-dihydro-1H-imidazo[4,5-b]pyridin-1-yl)acetic acid] |
| 1 to 10 | O=C(O)Cn1c(=O)n([C@H]2CCCN(S(=O)(=O)c3ccc(Cl)cc3Cl)C2)c2ncccc21 [Compound 109, (S)-2-(3-(1-(2,4-dichlorophenylsulfonyl)piperidin-3-yl)-2-oxo-2,3-dihydro-1H-imidazo[4,5-b]pyridin-1-yl)acetic acid] |
| 1 to 10 | Cc1ccc(S(=O)(=O)N2CCC[C@H](n3c(=O)n(CC(=O)O)c4cccnc43)C2)c(F)c1 [Compound 110, (S)-2-(3-(1-(2-fluoro-4-methylphenylsulfonyl)piperidin-3-yl)-2-oxo-2,3-dihydro-1H-imidazo[4,5-b]pyridin-1-yl)acetic acid] |
| < 1 | O=C(O)Cn1c(=O)n([C@@H]2CCCN(S(=O)(=O)c3ccc(Cl)cc3Cl)C2)c2ncccc21 [Compound 115, (R)-2-(3-(1-(2,4-dichlorophenylsulfonyl)piperidin-3-yl)-2-oxo-2,3-dihydro-1H-imidazo[4,5-b]pyridin-1-yl)acetic acid] |
| < 1 | Cc1ccc(S(=O)(=O)N2CCC[C@@H](n3c(=O)n(CC(=O)O)c4cccnc43)C2)c(F)c1 [Compound 116, (R)-2-(3-(1-(2-fluoro-4-methylphenylsulfonyl)piperidin-3-yl)-2-oxo-2,3-dihydro-1H-imidazo[4,5-b]pyridin-1-yl)acetic acid] |
| > 30 | Cc1ccnc2c1n(CC(=O)O)c(=O)n2C1CCN(S(=O)(=O)c2ccccc2S(C)(=O)=O)CC1 [Compound 117, 2-(7-methyl-3-(1-(2-(methylsulfonyl)phenylsulfonyl)piperidin-4-yl)-2-oxo-2,3-dihydro-1H-imidazo[4,5-b]pyridin-1-yl)acetic acid] |
| > 30 | Cc1cc(F)ccc1S(=O)(=O)N1CCC(n2c(=O)n(CC(=O)O)c3c(C)ccnc32)CC1 [Compound 119, 2-(3-(1-(4-fluoro-2-methylphenylsulfonyl)piperidin-4-yl)-7-methyl-2-oxo-2,3-dihydro-1H-imidazo[4,5-b]pyridin-1-yl)acetic acid] |
| > 30 | Cc1ccnc2c1n(CC(=O)O)c(=O)n2C1CCN(S(=O)(=O)c2ccc(F)cc2Cl)CC1 [Compound 120, 2-(3-(1-(2-chloro-4-fluorophenylsulfonyl)piperidin-4-yl)-7-methyl-2-oxo-2,3-dihydro-1H-imidazo[4,5-b]pyridin-1-yl)acetic acid] |
| > 30 | Cc1ccnc2c1n(CC(=O)O)c(=O)n2C1CCN(S(=O)(=O)c2ccc(Cl)cc2Cl)CC1 [Compound 122, 2-(3-(1-(2,4-dichlorophenylsulfonyl)piperidin-4-yl)-7-methyl-2-oxo-2,3-dihydro-1H-imidazo[4,5-b]pyridin-1-yl)acetic acid] |
| 1 to 10 | Cc1ccc(S(=O)(=O)N2CCC(n3c(=O)n(CC(=O)O)c4cc(C)cnc43)CC2)c(F)c1 [Compound 124, 2-(3-(1-(2-fluoro-4-methylphenylsulfonyl)piperidin-4-yl)-6-methyl-2-oxo-2,3-dihydro-1H-imidazo[4,5-b]pyridin-1-yl)acetic acid] |
| 10 to 30 | Cc1cnc2c(c1)n(CC(=O)O)c(=O)n2C1CCN(S(=O)(=O)c2ccc(F)cc2Cl)CC1 [Compound 126, 2-(3-(1-(2-chloro-4-fluorophenylsulfonyl)piperidin-4-yl)-6-methyl-2-oxo-2,3-dihydro-1H-imidazo[4,5-b]pyridin-1-yl)acetic acid] |

Continued, compound first:

| Structure (SMILES) | IC50 [µM] |
| --- | --- |
| Cc1ccc(S(=O)(=O)N2CC[C@@H](n3c(=O)n(CC(=O)O)c4cccnc43)C2)c(F)c1 [Compound 103, (R)-2-(3-(1-(2-fluoro-4-methylphenylsulfonyl)pyrrolidin-3-yl)-2-oxo-2,3-dihydro-1H-imidazo[4,5-b]pyridin-1-yl)acetic acid] | < 1 |
| CS(=O)(=O)c1ccccc1S(=O)(=O)N1CCC[C@H](n2c(=O)n(CC(=O)O)c3cccnc32)C1 [Compound 108, (S)-2-(3-(1-(2-(methylsulfonyl)phenylsulfonyl)piperidin-3-yl)-2-oxo-2,3-dihydro-1H-imidazo[4,5-b]pyridin-1-yl)acetic acid] | 1 to 10 |
| CS(=O)(=O)c1ccccc1S(=O)(=O)N1CCC(n2c(=O)n(CC(=O)O)c3cccnc32)C1 (stereo not shown) [Compound 111, 2-(3-(1-(2-(methylsulfonyl)phenylsulfonyl)pyrrolidin-3-yl)-2-oxo-2,3-dihydro-1H-imidazo[4,5-b]pyridin-1-yl)acetic acid] | < 1 |
| O=C(O)Cn1c(=O)n(C2CCN(S(=O)(=O)c3ccc(Cl)cc3Cl)C2)c2ncccc21 (stereo not shown) [Compound 112, 2-(3-(1-(2,4-dichlorophenylsulfonyl)pyrrolidin-3-yl)-2-oxo-2,3-dihydro-1H-imidazo[4,5-b]pyridin-1-yl)acetic acid] | 1 to 10 |
| CS(=O)(=O)c1ccccc1S(=O)(=O)N1CCC[C@@H](n2c(=O)n(CC(=O)O)c3cccnc32)C1 [Compound 113, (R)-2-(3-(1-(2-(methylsulfonyl)phenylsulfonyl)piperidin-3-yl)-2-oxo-2,3-dihydro-1H-imidazo[4,5-b]pyridin-1-yl)acetic acid] | < 1 |
| O=C(O)Cn1c(=O)n([C@@H]2CCCN(S(=O)(=O)c3ccc(F)cc3Cl)C2)c2ncccc21 [Compound 114, (R)-2-(3-(1-(2-chloro-4-fluorophenylsulfonyl)piperidin-3-yl)-2-oxo-2,3-dihydro-1H-imidazo[4,5-b]pyridin-1-yl)acetic acid] | < 1 |
| Cc1ccc(S(=O)(=O)N2CCC(n3c(=O)n(CC(=O)O)c4c(C)ccnc43)CC2)c(F)c1 [Compound 118, 2-(3-(1-(2-fluoro-4-methylphenylsulfonyl)piperidin-4-yl)-7-methyl-2-oxo-2,3-dihydro-1H-imidazo[4,5-b]pyridin-1-yl)acetic acid] | > 30 |
| Cc1ccnc2c1n(CC(=O)O)c(=O)n2C1CCN(S(=O)(=O)c2ccccc2Cl)CC1 [Compound 121, 2-(3-(1-(2-chlorophenylsulfonyl)piperidin-4-yl)-7-methyl-2-oxo-2,3-dihydro-1H-imidazo[4,5-b]pyridin-1-yl)acetic acid] | > 30 |
| Cc1cnc2c(c1)n(CC(=O)O)c(=O)n2C1CCN(S(=O)(=O)c2ccccc2S(C)(=O)=O)CC1 [Compound 123, 2-(6-methyl-3-(1-(2-(methylsulfonyl)phenylsulfonyl)piperidin-4-yl)-2-oxo-2,3-dihydro-1H-imidazo[4,5-b]pyridin-1-yl)acetic acid] | > 30 |
| Cc1cnc2c(c1)n(CC(=O)O)c(=O)n2C1CCN(S(=O)(=O)c2ccc(F)cc2C)CC1 [Compound 125, 2-(3-(1-(4-fluoro-2-methylphenylsulfonyl)piperidin-4-yl)-6-methyl-2-oxo-2,3-dihydro-1H-imidazo[4,5-b]pyridin-1-yl)acetic acid] | 10 to 30 |
| Cc1cnc2c(c1)n(CC(=O)O)c(=O)n2C1CCN(S(=O)(=O)c2ccccc2Cl)CC1 [Compound 127, 2-(3-(1-(2-chlorophenylsulfonyl)piperidin-4-yl)-6-methyl-2-oxo-2,3-dihydro-1H-imidazo[4,5-b]pyridin-1-yl)acetic acid] | 1 to 10 |
| O=C(O)Cn1c(=O)n(C2CCN(S(=O)(=O)c3ccc(F)cc3Cl)CC2)c2cccnc21 [Compound 132, 2-(1-(1-(2-chloro-4-fluorophenylsulfonyl)piperidin-4-yl)-2-oxo-1H-imidazo[4,5-b]pyridin-3(2H)-yl)acetic acid] | > 30 |
